# Laboratory results from US20150133537A1, “3 - (1' - ADAMANTYL) - 1 - AMINOMETHYL - 3, 4 - DIHYDRO - 5, 6 - DIHYDROXY - 1H - 2 - BENZOPYRAN FOR USE IN THE TREATMENT OF A DISEASE ASSOCIATED WITH BETA-AMYLOID INDUCED TOXICITY” (The University of Manchester, priority 2012, published 2015).
# “And” between values parts separate entries of the source, which are not always exact repeats. Equal entries are not always repeated. Structures can show the parent of a compound that is named as a salt.
# Assays:
# [1] = tested on: SH-SY5Y cells treated with extracellular Aβ42; test: MTT assay of cell viability in the presence of extracellular Aβ42; type: cell-based; settings: for cell viability (MTT): hydrochloride
# Experimental: The compound and target peptide were added simultaneously and incubated at 37° C. followed by cellular viability measurement using MTT assay. […] Data are represented as mean percentage viability, with no treatment controls set as 100%, n=3 and the error bars represent standard error.
# The MTT assay provides a colorimetric analysis of cell viability by the conversion of MTT into formazan product by the mitochondrial enzyme succinate dehydrogenase. For cytotoxicity experiments cells were washed twice with Dulbecco's PBS followed by trypsinisation of cells, centrifugation at 1800 rpm and seeding the cells on 96 well flat bottom plates (Costar) in Opti-MEM media without phenol red supplemented with 1.5% FCS, 1% L-glutamine, 1% Penicillin-streptomycin (P/S) and 1% non essential amino acids (NEAA).
# The cells were seeded at 1×10^5/ml density in a 96 well flat bottom plate (Costar) and incubated for 24 hr in a humidified incubator at 37° C. with 5% CO2.
# After 24 hr; 50 μl of the media was removed and 10 μl of MTT (2.5 mg/ml) was added to the cells. This was followed by incubation for further 4 hr at 37° C. and 5% CO2. MTT reduction was characterized by adding 100 μl solubilization solution containing 50 ml isopropyl alcohol and 197 μl of 37% HCl. The cytotoxicity was determined by measuring the absorbance at 570 nm using Polarstar BMG labtech plate reader.
# For the MTT cytotoxicity assay, A-77636 was diluted in the Opti-MEM media supplemented with 1.5% FCS, 1% P/S, 1% L-glutamine and 1% NEAA. The target compound was added to the SH-SY5Y cells at concentrations of 100 μM, 10 μM, 1 μM, 100 nM, 10 nM and 1 nM.
# The cells were seeded at 1×10^5/ml density in a 96 well flat bottom plate (Costar) and incubated for 24 hr in a humidified incubator at 37° C. with 5% CO2. […] The cells were then incubated for 24 hr in the humidified incubator at 37° C. in 5% CO2.
# After 24 hr; 500 of the media was removed and 10 μl of MTT (2.5 mg/ml) was added to the cells. This was followed by incubation for further 4 hr at 37° C. and 5% CO2. MTT reduction was characterized by adding 100 μl solubilization solution containing 50 ml isopropyl alcohol and 197 μl of 37% HCl. The 96 well plates were kept at room temperature for 6 hr to dissolve the formazan crystals. The cytotoxicity was determined by measuring the absorbance at 570 nm using Polarstar BMG labtech plate reader.
# [2] = tested on: SHSY5Y cells treated with Aβ42 (1 μM); test: Cyto Tox-One LDH (lactate dehydrogenase) release assay; type: cell-based; settings: for LDH release: SHSY5Y cells, Exp 1-3 and Avg, hydrochloride;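 as to all read-outs here: fluorescent readout of resorufin formed from resazurin in proportion to released LDH (excitation 560 nm, emission 590 nm), with detergent-lysed dead cells taken as 100% maximal release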
# Text: The LDH assay provides the measure of cytotoxicity, wherein the amount of LDH released quantifies cell membrane damage, caused either by apoptosis or necrosis^13,15. The commercially available Cyto Tox-One assay (Promega; G7890) was used here which provides a fluorescent measure of LDH release, wherein the reduction of resazurin dye to resofurin is coupled through enzymatic conversion involving NADH. The generation of fluorescent dye resofurin is proportional to the amount of LDH release.
# For the LDH cytotoxicity assay, A-77636 was diluted in the Opti-MEM media supplemented with 1.5% FCS, 1% P/S, 1% L-glutamine and 1% NEAA. A-77636 was added to the SHSY5Y cells at concentrations of 100 μM, 10 μM, 1 μM, 100 nM, 10 nM and 1 nM.
# The cells were seeded at 1×10^5/ml density in a 96 well black, flat bottom plate (BD Biosciences) and incubated for 24 hr in a humidified incubator at 37° C. with 5% CO2. […] The final concentration of the target peptide and A-77636 within the cells was 1 μM:100 μM, 1 μM:10 μM, 1 μM:1 μM, 1 μM:100 nM, 1 μM:10 nM, and 1 μM:1 nM respectively. The cells were then incubated for 24 hr in the humidified incubator at 37° C. in 5% CO2.
# After 24 hr, the 96 well plates were removed from the incubator and equilibrated at 22° C. for 30 min. The Cyto Tox-One reagent was prepared according to the manufacturer's protocol by equilibrating the substrate mix at 22° C. and thawing the assay buffer at 37° C. in a water bath. This was followed by adding 11 ml of assay buffer to each vial of substrate mix. 100 μl of Cyto Tox-One reagent was added to each well. The preparation and addition of Cyto Tox-One reagent was undertaken in the dark to avoid increased background fluorescence and stored at −20° C. until required. The cells were further incubated at 22° C. for 10 min followed by addition of stop solution to the wells in the same order as that of the Cyto Tox-One reagent to avoid increased variation in the results. The stop solution stops formation of fluorescent product resofurin. The maximum LDH release (set as 100%) for each experiment was determined by adding 2 μl of lysis solution (9% triton X 100, Promega) to the cells prior to the addition of Cyto Tox-One reagent, providing a dead cell control. […] The 96 well plates were then kept on the shaker for 10 sec and the fluorescence was measured immediately with an excitation at 560 nm and emission at 590 nm using a Polarstar BMG plate reader.
# [3] = tested on: Parkinson's disease in animal models; settings: known, reference 9; cited from earlier work
# [4] = known, reference 16; cited from earlier work
smiles,measurement,setting,value
"Br.C=CCN1CCc2c(cc(O)c(O)c2Br)[C@@H](c2ccccc2)C1 [Compound A, R(+)-6-Bromo-7,8-dihydroxy-3-allyl-1-phenyl-2,3,4,5-tetrahydro-1H-3-benzazepine hydrobromide, reference compound]",inhibition of Aβ42 toxicity,"[1]; D1 receptor agonist screen, SH-SY5Y cells, Aβ42 (1 μM), 24 hr, MTT",partial inhibition
same,cellular viability (MTT),"[1]; D1 receptor agonist screen, SH-SY5Y cells, added simultaneously with Aβ42 (1 μM), 24 hr, no treatment controls = 100%, p<0.05",81%
"NC[C@@H]1O[C@H](C23CC4CC(CC(C4)C2)C3)Cc2c1ccc(O)c2O [Compound A-77636, (1R,3S) 3-(1′-adamantyl)-1-aminomethyl-3,4-dihydro-5,6-dihydroxy-1H-2-benzopyran hydrochloride]",inhibition of the toxic effects of Aβ42,"[1]; 1 μM A-77636, 1 μM Aβ42, MTT, Table 1",capable of inhibiting the toxic effects of Aβ42
same,activity against Aβ42 toxicity in MTT assay,"[1]; A-77636 at 1 nM, SH-SY5Y cells with 1 μM Aβ42",inactive
same,toxicity in MTT assay,"[1]; A-77636 at 100 μM, SH-SY5Y cells with 1 μM Aβ42",toxic
same,activity against Aβ42 toxicity in MTT assay,"[1]; A-77636 from 10 nM to 10 μM, SH-SY5Y cells with 1 μM Aβ42",active
same,cell viability (MTT),"[1]; SH-SY5Y cells, 1 μM Aβ42 + 1 μM A-77636, 24 hr, Aβ42 −ve cells = 100%, Experiments 1-3 and Average",82% and 69% and 92%
same,cell viability (MTT),"[1]; SH-SY5Y cells, 1 μM Aβ42 + 1 μM A-77636, 24 hr, Aβ42 −ve cells = 100%, Experiments 1-3 and Average, mean",81%
same,cell viability (MTT),"[1]; SHSY5Y cells, 1 μM Aβ42 + 1 nM A-77636, 24 hr, Exp 1-3 and Avg",71% and 67%
same,cell viability (MTT),"[1]; SHSY5Y cells, 1 μM Aβ42 + 1 nM A-77636, 24 hr, Exp 1-3 and Avg, mean of three experiments",68%
same,cell viability (MTT),"[1]; SHSY5Y cells, 1 μM Aβ42 + 10 nM A-77636, 24 hr, Exp 1-3 and Avg",80% and 74% and 84%
same,cell viability (MTT),"[1]; SHSY5Y cells, 1 μM Aβ42 + 10 nM A-77636, 24 hr, Exp 1-3 and Avg, mean of three experiments",79%
same,cell viability (MTT),"[1]; SHSY5Y cells, 1 μM Aβ42 + 100 nM A-77636, 24 hr, Exp 1-3 and Avg",78% and 74% and 81%
same,cell viability (MTT),"[1]; SHSY5Y cells, 1 μM Aβ42 + 100 nM A-77636, 24 hr, Exp 1-3 and Avg, mean of three experiments",77%
same,cell viability (MTT),"[1]; SHSY5Y cells, 1 μM Aβ42 + 1 μM A-77636, 24 hr, Exp 1-3 and Avg (Table 2)",87% and 90% and 86%
same,cell viability (MTT),"[1]; SHSY5Y cells, 1 μM Aβ42 + 10 μM A-77636, 24 hr, Exp 1-3 and Avg",84% and 81% and 86%
same,cell viability (MTT),"[1]; SHSY5Y cells, 1 μM Aβ42 + 10 μM A-77636, 24 hr, Exp 1-3 and Avg, mean of three experiments",83%
same,cell viability (MTT),"[1]; SHSY5Y cells, 1 μM Aβ42 + 100 μM A-77636, 24 hr, Exp 1-3 and Avg",9% and 4%
same,cell viability (MTT),"[1]; SHSY5Y cells, 1 μM Aβ42 + 100 μM A-77636, 24 hr, Exp 1-3 and Avg, mean of three experiments",6%
same,toxicity in LDH assay,"[2]; A-77636 at 100 μM, 1 μM Aβ42",possibly toxic
same,LDH release,"[2]; 1 μM Aβ42 + 1 nM A-77636, 24 hr",35% and 38% and 61%
same,LDH release,"[2]; 1 μM Aβ42 + 1 nM A-77636, 24 hr, mean",45%
same,LDH release,"[2]; 1 μM Aβ42 + 10 nM A-77636, 24 hr",35% and 39% and 56%
same,LDH release,"[2]; 1 μM Aβ42 + 10 nM A-77636, 24 hr, mean",43%
same,LDH release,"[2]; 1 μM Aβ42 + 100 nM A-77636, 24 hr",20% and 23% and 32%
same,LDH release,"[2]; 1 μM Aβ42 + 100 nM A-77636, 24 hr, mean",25%
same,LDH release,"[2]; 1 μM Aβ42 + 1 μM A-77636, 24 hr",27% and 48% and 43%
same,LDH release,"[2]; 1 μM Aβ42 + 1 μM A-77636, 24 hr, mean",39%
same,LDH release,"[2]; 1 μM Aβ42 + 10 μM A-77636, 24 hr",33% and 47% and 52%
same,LDH release,"[2]; 1 μM Aβ42 + 10 μM A-77636, 24 hr, mean",44%
same,LDH release,"[2]; 1 μM Aβ42 + 100 μM A-77636, 24 hr, LDH max (dead cells) = 100",61% and 53% and 64%
same,effect on Aβ42 toxicity in LDH assay,"[2]; all concentrations from 100 μM to 1 nM, 1 μM Aβ42",reduces Aβ42 toxicity
same,activity against Parkinson's disease in animal models,[3],activity against Parkinson's disease
same,crossing of the blood-brain barrier,[4],cross the blood-brain barrier
